Measured values published in US20100075899A1, “TARGETED PHOTODYNAMIC THERAPY AGENT” (TRUSTEES OF THE UNIVERSITY OF PENNSYLVANIA, priority 2006, published 2010).

Tests used:
[1] = system: KB cells (FR+); assay: Flow cytometry uptake (Pyro fluorescence), KB cells; type: cell-based, human
Protocol: (§1) Flow cytometry experiments. KB, HT 1080, and CHO cells were seeded in T25 flasks (each flask 10^6 cells) and grown for 1 day in complete MEM (KB cells and HT 1080 cells) or complete F12K (CHO cells) medium. […] The cells were detached by 0.25% Trypsin-EDTA, fixed by 1% formaldehyde (methanol free) in PBS, resuspended in 1 mL of PBS and immediately analyzed on a BD LSRII machine at the Flow Cytometry Laboratory, Abramson Cancer Center at the University of Pennsylvania focusing on Pyro fluorescence (exc. 633 nm, em. 695 nm).

[2] = system: CHO cells (FR−); assay: Flow cytometry uptake (Pyro fluorescence), CHO cells; type: cell-based, Chinese hamster
Protocol: as §1

[3] = system: HT 1080 cells (FR−); assay: Flow cytometry uptake (Pyro fluorescence), HT 1080 cells; type: cell-based, human
Protocol: as §1

[4] = type: physicochemical
Protocol: Pyro-[…] (PP) Pyro-[…]-Folate (PPF) were purified by HPLC (Waters 600 Controller with a 2996 Photodiode Array Detector). The eluents were A=0.1M TEAA (pH 7) and B=acetonitrile and the method used for all injections was 90% of A and 10% of B to 100% of B in 45 minutes with flow 1.5 mL/min on a Zorbax 300SB-C3 column The coupling reagents HBTU (O-(Benzotriazol-1-yl)-N,N,N′,N′-tetramethyluronium hexafluorophosphate) and HOBt (1-Hydroxybenzotriazole) were purchased from Fluka and ACROS respectively. MALDI-ToF was measured on an Applied Biosystems Voyager DE Mass Spectrometer and fluorescence was measured on a Perkin Elmer LS50B Luminescence Spectrometer. We acquired confocal images using a Leica TCS SP2 Confocal Microscope and Xenogen images at the Bioluminescence Molecular Imaging Core facility at UPenn on an IVIS Xenogen Imager. KB cells (human epidermal cancer cells; folate receptor positive), HT 1080 cells (human fibrosarcoma cells; folate receptor negative), and CHO (Chinese hamster ovary cells; folate receptor negative) were purchased from ATCC. […]

## Pyro-K-Folate [PKF]
[1]
  uptake efficiency into KB cells relative to Pyro-GDEVDGSGK-Folate: 50%
[2]
  uptake efficiency PPF versus PKF in CHO cells: with the same efficiency
[3]
  uptake efficiency PPF versus PKF in HT 1080 cells: with the same efficiency
[4]
  solubility in water compared with PPF: less soluble in water
[4]; HPLC
  hydrophobicity (HPLC) compared with PPF: more hydrophobic
